{
  "source": "patent EP0016946A1",
  "about": "“Process and reagent for the activation of cholesterol esterase” (BOEHRINGER MANNHEIM GMBH, priority 1979, dated 1980)",
  "tested_on": "Cholesterinesterase",
  "test": "Cholesterol esterase activity: rate of ester cleavage, continuous-flow apparatus with photometric cholesterol indicator reaction (546 nm)",
  "assay_type": "biochemical",
  "experimental": "Zum Nachweis der aktivierenden Wirkung der zu untersuchenden synergistischen Kombinationen der Erfindung auf Cholesterinesterase wurde die in Fig. 1 dargestellte Apparatur verwendet.\nAus einem temperierbaren Reaktionsgefäß 1 (25°C), in dem sich die Esterspaltung vollzieht, werden über eine Schlauchpumpe 2 durch einen Förderschlauch 3 definierten Querschnitts kontinuierlich o,32 ml Gemisch/Minute entnommen. über die gleiche Pumpe wird durch einen zweiten Schlauch 4 aus einem Vorratsgefäß 5 ebenfalls kontinuierlich 1,o ml Indikatorlösung/Minute gefördert, hinter der Pumpe 2 mit einem Luftstrom 6 von konstant o,6 ml Luft/ Minute zusammengeführt und damit segmentiert und dann mit dem zuvor beschriebenen Reaktionsgemischstrom vereinigt. Der Gesamtstrom passiert daraufhin zwei Glasschlangen 7, wodurch eine Durchmischung der Flüssigkeiten und die notwendige Reaktionszeit für die Indikatorreaktion bis zum Endpunkt gewährleistet wird. Durch Abziehen eines Stroms von 1,2 ml/Minute unmittelbar vor der Küvette durch Schlauchleitung 8 senkrecht nach oben werden die Luftblasen wieder entfernt. Der nicht segmentierte Reststrom wird zur photometrischen Messung (bei 546 nm) in eine Durchflußküvette (1 cm Schichtdicke) geleitet und die Meßwerte werden vom Schreiber 1o registriert.\nWegen der gleichbleibenden Bedingungen bezüglich der Indikatorreaktion sind Änderungen in Höhe und Verlauf des Meßsignals allein von den Vorgängen im Reaktionsgefäß abhängig. Findet dort eine Esterspaltung statt, so bewirkt deren kinetischer Verlauf eine Zunahme des Meßsignals, welches als positive Steigung mit dem Schreiber 1o registriert wird. Die Steilheit des Anstiegs ist ein Maß für die Reaktionsgeschwindigkeit und damit für die Cholesterinesteraseaktivität im Reaktionsansatz.\nWegen des getrennten Ablaufs von Esterspaltung und Indikatorreaktion ist eine gegenseitige Beeinflussung ausgeschlossen. Natürlich wären auch andere Indikatorsysteme einschließlich der Sauerstoffelektrode verwendbar.\nDie Indikatorlösung setzt zunächst freies Cholesterin zu Cholestenon und H202 um. Das entstandene H202 wird mit Phenol und 4-Aminoantipyrin zu einem roten Farbstoff umgesetzt, dessen Absorption photometrisch gemessen wird. Die Menge des entstehenden Farbstoffs ist der Konzentration des freien Cholesterins proportional. Die Konzentration an freiem Cholesterin setzt sich aus dem bereits im Substrat vorhandenen Anteil an freiem Cholesterin sowie aus dem durch die Esterase freigesetzten Cholesterin zusammen.\nStart mit 50 µl einer Esterase-Stocklösung, woraufhin o,oo3 U/ml Esterase im Ansatz vorliegen. Bei Aktivitätsabstufungen wurde diese Menge variiert.\nNach erfolgtem Start und Durchmischung wird bei laufender Pumpe 2 der Förderschlauch 3 in die Lösung im Reaktionsgefäß 1 für etwa 1o Minuten eingetaucht. Anschließend wird zur besseren Trennung der Signale in jeweils etwa 1o Segmenten wechselweise Luft und bidest. Wasser angesaugt. Daraufhin kann die nächste Bestimmung erfolgen.",
  "data": [
    {"smiles": "OCC(Cl)(Cl)Cl", "note": "[2,2,2-Trichloräthanol]", "values": [
      {"measurement": "Resultierende Geschwindigkeit gegenüber Vergleichswert", "setting": "1 Vol.-% additive, 1o %o Genapol OX-1oo/1o %o Na-Caprylat, o,oo3 U/ml Cholesterinesterase, o,1 M Kaliumphosphatpuffer, pH 7,o with adjuvant vs o,3 M buffer without adjuvant", "value": "Der Vergleichswert wird übertroffen"},
      {"measurement": "Resultierende Geschwindigkeit gegenüber Vergleichswert", "setting": "o,1 Vol.-% additive, o,3 M Kaliumphosphatpuffer, pH 7,o, reduced Tergitol NPX concentration with adjuvant vs detergent concentration optimum without adjuvant, o,oo3 U/ml Cholesterinesterase", "value": "Der Vergleichswert wird übertroffen"},
      {"measurement": "Resultierende Geschwindigkeit gegenüber Vergleichswert", "setting": "o,3 Vol.-% additive, 0,3 M Kaliumphosphatpuffer, pH 7,o, reduced Genapol OX-1oo/Natriumcaprylat concentration with adjuvant vs detergent concentration optimum without adjuvant, o,oo3 U/ml Cholesterinesterase", "value": "Der Vergleichswert wird deutlich übertroffen"}
    ]},
    {"smiles": "CC(C)CC(C)O", "note": "(stereo not shown) [4-Methylpentanol-(2)]", "values": [
      {"measurement": "Resultierende Geschwindigkeit gegenüber Vergleichswert", "setting": "1,4 Vol.-% additive, 15 %o Tergitol NPX, 0,003 U/ml Cholesterinesterase, o,1 M Kaliumphosphatpuffer, pH 7,o with adjuvant vs o,3 M buffer without adjuvant, 25°C", "value": "Der Vergleichswert wird übertroffen"},
      {"measurement": "Resultierende Geschwindigkeit gegenüber Vergleichswert", "setting": "1 Vol.-% additive, 0,3 M Kaliumphosphatpuffer, pH 7,o, reduced Genapol OX-1oo/Natriumcaprylat concentration with adjuvant vs detergent concentration optimum without adjuvant, o,oo3 U/ml Cholesterinesterase", "value": "Der Vergleichswert wird erreicht"}
    ]},
    {"smiles": "OC1CCCCC1", "note": "[Cyclohexanol]", "values": [
      {"measurement": "Resultierende Geschwindigkeit gegenüber Vergleichswert", "setting": "1 Vol.-% additive, o,3 M Kaliumphosphatpuffer, pH 7,o, reduced Tergitol NPX concentration with adjuvant vs detergent concentration optimum without adjuvant, o,oo3 U/ml Cholesterinesterase", "value": "Der Vergleichswert wird deutlich übertroffen"},
      {"measurement": "Resultierende Geschwindigkeit gegenüber Vergleichswert", "setting": "2 Vol.-% additive (example 6.3), 15 %o Tergitol NPX, 0,003 U/ml Cholesterinesterase, o,1 M Kaliumphosphatpuffer, pH 7,o with adjuvant vs o,3 M buffer without adjuvant, 25°C", "value": "Der Vergleichswert wird deutlich übertroffen"},
      {"measurement": "Resultierende Geschwindigkeit gegenüber Vergleichswert", "setting": "2 Vol.-% additive, 0,3 M Kaliumphosphatpuffer, pH 7,o, reduced Genapol OX-1oo/Natriumcaprylat concentration with adjuvant vs detergent concentration optimum without adjuvant, o,oo3 U/ml Cholesterinesterase", "value": "Der Vergleichswert wird übertroffen"},
      {"measurement": "Resultierende Geschwindigkeit gegenüber Vergleichswert", "setting": "2 Vol.-% additive, 1o %o Genapol OX-1oo/1o %o Na-Caprylat, o,oo3 U/ml Cholesterinesterase, o,1 M Kaliumphosphatpuffer, pH 7,o with adjuvant vs o,3 M buffer without adjuvant", "value": "Der Vergleichswert wird übertroffen"}
    ]},
    {"smiles": "Oc1ccccc1", "note": "[Phenol]", "values": [
      {"measurement": "Resultierende Geschwindigkeit gegenüber Vergleichswert", "setting": "4o mM (ca. o,35 Gew.-%) additive, 1o %o Genapol OX-1oo/1o %o Na-Caprylat, o,oo3 U/ml Cholesterinesterase, o,1 M Kaliumphosphatpuffer, pH 7,o with adjuvant vs o,3 M buffer without adjuvant", "value": "Der Vergleichswert wird erreicht"}
    ]}
  ]
}
